From ChEMBL document CHEMBL1201862, “PubChem BioAssay data set” (2004)
Where a name gives a salt, the structure may show the parent alone. Activity calls are given as the source filed them.

Legend:
[1] = target: Peroxisome proliferator-activated receptor gamma/Nuclear receptor coactivator 3 (Homo sapiens, UniProt P37231); assay: (§1) TR-FRET dose response biochemical High Throughput Screening assay for agonists of the steroid receptor coactivator 3 (SRC-3) recruitment by the peroxisome proliferator-activated receptor gamma (PPAR gamma): non-selective agonists. [Related pubchem assays: 1301 (Confirmation screen.), 1048 (Primary screen.)]; format: functional
[2] = target: Peroxisome proliferator-activated receptor gamma/Nuclear receptor coactivator 1 (Homo sapiens, UniProt P37231); assay: as §1, with “1 (SRC-1)” for “3 (SRC-3)”, “assays (depositor defined):AID1300, AID1808, AID504735, AID631]” for “assays: 1301 (Confirmation screen.), 1048 (Primary screen.)]”; format: protein assay
[3] = target: Peroxisome proliferator-activated receptor gamma/Nuclear receptor coactivator 2 (Homo sapiens, UniProt P37231); assay: TR-FRET dose response biochemical High Throughput Screening assay for agonists of the steroid receptor coactivator 2 (SRC-2) recruitment by the peroxisome proliferator-activated receptor gamma (PPAR gamma): non-selective agonists. [Related pubchem assays: 1297, 1032 ]; format: functional
Nonstructural protein 1 = Nonstructural protein 1 (Influenza A virus, UniProt Q194T2); format: functional, Influenza A virus (A/California/07/2009(H1N1))
Chain of Nonstructural protein 1 (Q194T2 whole entry): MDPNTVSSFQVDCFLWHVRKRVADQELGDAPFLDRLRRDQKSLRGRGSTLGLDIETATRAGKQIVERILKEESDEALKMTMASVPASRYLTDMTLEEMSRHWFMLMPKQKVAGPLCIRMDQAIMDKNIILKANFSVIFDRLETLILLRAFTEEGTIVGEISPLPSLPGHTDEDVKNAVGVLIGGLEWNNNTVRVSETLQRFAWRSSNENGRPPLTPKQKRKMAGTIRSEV

[4] = target: T1, Rac GTPase-activating protein 1 (Homo sapiens, UniProt Q9H0H5); assay: MgcRacGAP GTPase-activating activity inhibitors, confirmation, biochemical, ADP Hunter fluorescence, primary and confirmatory (AID 624330); format: functional
T1 sequence (Q9H0H5 whole entry): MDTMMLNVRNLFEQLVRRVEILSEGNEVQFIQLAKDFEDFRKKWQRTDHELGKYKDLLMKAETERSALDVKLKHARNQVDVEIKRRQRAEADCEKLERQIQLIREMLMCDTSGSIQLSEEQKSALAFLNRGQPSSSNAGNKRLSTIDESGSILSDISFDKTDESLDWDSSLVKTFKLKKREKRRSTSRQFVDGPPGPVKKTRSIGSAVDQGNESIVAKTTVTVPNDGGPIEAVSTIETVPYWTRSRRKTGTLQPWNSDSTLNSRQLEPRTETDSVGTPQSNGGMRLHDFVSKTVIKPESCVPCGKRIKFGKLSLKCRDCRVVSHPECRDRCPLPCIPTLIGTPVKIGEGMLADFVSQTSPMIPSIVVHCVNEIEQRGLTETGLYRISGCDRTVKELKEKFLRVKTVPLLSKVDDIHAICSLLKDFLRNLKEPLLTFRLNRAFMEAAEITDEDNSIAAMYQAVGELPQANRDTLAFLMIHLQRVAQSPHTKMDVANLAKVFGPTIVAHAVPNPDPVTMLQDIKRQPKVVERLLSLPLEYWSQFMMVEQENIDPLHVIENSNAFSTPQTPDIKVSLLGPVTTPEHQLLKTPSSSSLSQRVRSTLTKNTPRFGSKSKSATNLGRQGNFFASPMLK

[5] = Luminescence Cell-Based Dose Retest to Confirm Inhibitors of Cancer Stem Cells. [Related pubchem assays (depositor defined):AID2717, AID2721]; format: functional, Homo sapiens; settings: Homo sapiens
[6] = cytotoxicity in HMLE control line with eGFP shRNA, dose response, counter-screen for HMLE_sh_ECad selective toxicity project, cell-based, HMLE_sh_eGFP, luminescence (AID 463074); format: functional, Homo sapiens;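 also: HMLE human mammary epithelial cells expressing control shRNA against eGFP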
[7] = AlphaScreen signal interference compounds, dose response, artefact control for ARNT-TACC3 interaction inhibitor project, biochemical, luminescence, cherry-pick (AID 651705); format: functional;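 also: AlphaScreen bead proximity signal that flags compounds interfering with the detection technology; potency reflects signal decrease which marks the compound as an assay artifact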
Escherichia coli [8] = assay: microbe, parasite or virus in culture
Mu-type opioid receptor = Mu-type opioid receptor (Homo sapiens, UniProt P35372); format: functional, cell-based;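 also: U2OS cells with beta-arrestin recruitment to OPRM1 by beta-gal complementation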
Chain of Mu-type opioid receptor (P35372 whole entry): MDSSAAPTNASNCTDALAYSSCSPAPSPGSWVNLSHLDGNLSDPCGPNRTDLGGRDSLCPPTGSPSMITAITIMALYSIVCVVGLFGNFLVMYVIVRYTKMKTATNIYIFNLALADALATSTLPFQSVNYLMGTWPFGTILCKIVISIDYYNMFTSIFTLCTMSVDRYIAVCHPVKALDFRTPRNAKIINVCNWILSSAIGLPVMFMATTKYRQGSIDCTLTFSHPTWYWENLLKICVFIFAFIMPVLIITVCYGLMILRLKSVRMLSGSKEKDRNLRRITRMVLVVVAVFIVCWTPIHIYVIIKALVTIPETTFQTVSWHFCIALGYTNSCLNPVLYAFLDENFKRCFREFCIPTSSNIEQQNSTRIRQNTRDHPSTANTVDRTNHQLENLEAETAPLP

[9] = target: 5-hydroxytryptamine receptor 2A (Mus musculus, UniProt P35363); format: functional, cell-based;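 also: CHO-K1 cells with tagged receptor and beta-arrestin; agonist potency measured as compound-induced activation of the receptor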
Chain of 5-hydroxytryptamine receptor 2A (P35363 whole entry): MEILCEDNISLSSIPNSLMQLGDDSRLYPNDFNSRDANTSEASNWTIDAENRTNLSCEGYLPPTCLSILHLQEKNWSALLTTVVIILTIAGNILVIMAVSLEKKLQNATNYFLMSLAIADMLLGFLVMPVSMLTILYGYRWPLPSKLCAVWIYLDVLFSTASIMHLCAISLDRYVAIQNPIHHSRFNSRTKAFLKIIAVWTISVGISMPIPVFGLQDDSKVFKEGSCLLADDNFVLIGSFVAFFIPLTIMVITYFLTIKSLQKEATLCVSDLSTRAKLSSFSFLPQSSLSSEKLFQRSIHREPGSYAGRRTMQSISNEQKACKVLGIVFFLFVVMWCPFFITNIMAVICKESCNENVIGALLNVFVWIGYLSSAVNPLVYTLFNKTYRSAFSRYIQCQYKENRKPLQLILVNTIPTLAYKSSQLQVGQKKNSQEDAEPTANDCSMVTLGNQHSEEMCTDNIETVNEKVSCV

Escherichia coli [10] = assay: microbe, parasite or virus in culture; remark: listed apart in the source
[11] = target: T2, Tyrosine-protein phosphatase non-receptor type 22 (Homo sapiens, UniProt Q9Y2R2); format: functional
T2 sequence (Q9Y2R2 whole entry): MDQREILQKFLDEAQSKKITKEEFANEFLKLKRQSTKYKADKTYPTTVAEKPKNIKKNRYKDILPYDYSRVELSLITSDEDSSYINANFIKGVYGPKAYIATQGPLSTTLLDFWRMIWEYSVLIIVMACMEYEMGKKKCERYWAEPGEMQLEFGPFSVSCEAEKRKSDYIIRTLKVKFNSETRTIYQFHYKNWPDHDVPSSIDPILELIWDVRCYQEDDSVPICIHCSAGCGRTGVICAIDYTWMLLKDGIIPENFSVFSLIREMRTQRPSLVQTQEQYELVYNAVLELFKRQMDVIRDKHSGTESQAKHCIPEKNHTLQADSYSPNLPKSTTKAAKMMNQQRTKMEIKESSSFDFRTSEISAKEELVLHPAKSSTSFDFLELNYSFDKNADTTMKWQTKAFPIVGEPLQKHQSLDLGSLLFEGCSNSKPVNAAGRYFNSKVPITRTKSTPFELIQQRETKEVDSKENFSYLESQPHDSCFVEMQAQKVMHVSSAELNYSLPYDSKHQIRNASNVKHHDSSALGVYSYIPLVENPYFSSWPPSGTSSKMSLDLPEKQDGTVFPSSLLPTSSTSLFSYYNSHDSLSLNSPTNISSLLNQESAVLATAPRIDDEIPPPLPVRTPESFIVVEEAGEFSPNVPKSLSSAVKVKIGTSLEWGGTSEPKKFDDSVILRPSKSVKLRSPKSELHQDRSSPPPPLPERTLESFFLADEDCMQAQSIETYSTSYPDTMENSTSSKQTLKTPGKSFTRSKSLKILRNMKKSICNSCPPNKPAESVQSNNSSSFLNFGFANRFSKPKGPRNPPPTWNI

[12] = target: T2, Tyrosine-protein phosphatase non-receptor type 22; format: functional; remark: listed apart in the source
[13] = target: T3, Tyrosine-protein phosphatase non-receptor type 7 (Homo sapiens, UniProt P35236); format: functional
T3 sequence (P35236 whole entry): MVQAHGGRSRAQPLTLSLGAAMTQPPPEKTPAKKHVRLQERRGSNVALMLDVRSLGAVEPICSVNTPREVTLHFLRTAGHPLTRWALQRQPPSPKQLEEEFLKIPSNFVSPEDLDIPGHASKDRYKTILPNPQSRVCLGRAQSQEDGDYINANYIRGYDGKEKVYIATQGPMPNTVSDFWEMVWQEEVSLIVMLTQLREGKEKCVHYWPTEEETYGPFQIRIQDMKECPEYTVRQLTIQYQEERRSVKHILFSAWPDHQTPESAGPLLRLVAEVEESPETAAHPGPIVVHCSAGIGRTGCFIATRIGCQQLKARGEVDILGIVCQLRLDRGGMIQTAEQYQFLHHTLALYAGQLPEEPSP

INS1 = assay: beta cell apoptosis inhibitors, cytokine rescue, dose response, luminescence, retest (AID 449756); format: functional, cell-based; settings: Rattus norvegicus;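 also: cell death triggered by IL-1 beta plus TNF-alpha plus IFN-gamma mixture; protective hits raise ATP signal compared with cytokine alone wells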
[14] = target: Fructose-bisphosphate aldolase (Mycobacterium tuberculosis, UniProt P9WQA3); assay: Fluorescence-based biochemical high throughput dose response assay for inhibitors of the fructose-bisphosphate aldolase (FBA) of M. tuberculosis.; format: functional
Chain of Fructose-bisphosphate aldolase (P9WQA3 whole entry): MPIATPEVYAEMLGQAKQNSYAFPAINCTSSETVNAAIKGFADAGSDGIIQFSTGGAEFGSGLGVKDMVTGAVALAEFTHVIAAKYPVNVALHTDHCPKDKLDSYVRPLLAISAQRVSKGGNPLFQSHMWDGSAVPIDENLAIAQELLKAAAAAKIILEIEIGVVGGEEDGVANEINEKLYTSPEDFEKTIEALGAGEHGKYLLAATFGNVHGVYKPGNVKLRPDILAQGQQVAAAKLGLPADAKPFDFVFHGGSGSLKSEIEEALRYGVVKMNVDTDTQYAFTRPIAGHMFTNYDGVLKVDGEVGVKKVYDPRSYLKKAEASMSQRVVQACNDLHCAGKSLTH

Exodeoxyribonuclease V = Exodeoxyribonuclease V (Escherichia coli (strain K12), UniProt P04993+P07648+P08394); assay: E. coli RecBCD inhibitors, dose response, counter-screen for AddAB inhibitor project, absorbance, V66 E. coli, mutant T4 phage (AID 492957); format: functional, cell-based, Escherichia coli str. K-12 substr. MG1655
Chain of Exodeoxyribonuclease V (P04993 whole entry): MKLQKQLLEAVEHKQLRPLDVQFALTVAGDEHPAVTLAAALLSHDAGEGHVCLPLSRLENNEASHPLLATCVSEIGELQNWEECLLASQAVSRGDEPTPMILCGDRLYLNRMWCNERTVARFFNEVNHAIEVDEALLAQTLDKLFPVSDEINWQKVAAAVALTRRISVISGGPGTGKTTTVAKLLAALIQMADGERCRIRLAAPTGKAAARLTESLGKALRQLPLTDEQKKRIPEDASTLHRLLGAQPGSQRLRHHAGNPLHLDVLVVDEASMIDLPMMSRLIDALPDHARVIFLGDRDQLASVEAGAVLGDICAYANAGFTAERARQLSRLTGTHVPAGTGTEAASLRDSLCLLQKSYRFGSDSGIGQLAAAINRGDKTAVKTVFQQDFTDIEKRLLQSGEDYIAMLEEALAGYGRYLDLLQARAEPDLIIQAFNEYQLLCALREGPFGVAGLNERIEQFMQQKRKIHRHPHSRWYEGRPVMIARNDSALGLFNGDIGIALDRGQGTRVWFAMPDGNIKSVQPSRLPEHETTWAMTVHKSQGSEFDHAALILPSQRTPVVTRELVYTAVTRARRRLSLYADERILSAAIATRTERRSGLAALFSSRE
Chain of Exodeoxyribonuclease V (P07648 whole entry): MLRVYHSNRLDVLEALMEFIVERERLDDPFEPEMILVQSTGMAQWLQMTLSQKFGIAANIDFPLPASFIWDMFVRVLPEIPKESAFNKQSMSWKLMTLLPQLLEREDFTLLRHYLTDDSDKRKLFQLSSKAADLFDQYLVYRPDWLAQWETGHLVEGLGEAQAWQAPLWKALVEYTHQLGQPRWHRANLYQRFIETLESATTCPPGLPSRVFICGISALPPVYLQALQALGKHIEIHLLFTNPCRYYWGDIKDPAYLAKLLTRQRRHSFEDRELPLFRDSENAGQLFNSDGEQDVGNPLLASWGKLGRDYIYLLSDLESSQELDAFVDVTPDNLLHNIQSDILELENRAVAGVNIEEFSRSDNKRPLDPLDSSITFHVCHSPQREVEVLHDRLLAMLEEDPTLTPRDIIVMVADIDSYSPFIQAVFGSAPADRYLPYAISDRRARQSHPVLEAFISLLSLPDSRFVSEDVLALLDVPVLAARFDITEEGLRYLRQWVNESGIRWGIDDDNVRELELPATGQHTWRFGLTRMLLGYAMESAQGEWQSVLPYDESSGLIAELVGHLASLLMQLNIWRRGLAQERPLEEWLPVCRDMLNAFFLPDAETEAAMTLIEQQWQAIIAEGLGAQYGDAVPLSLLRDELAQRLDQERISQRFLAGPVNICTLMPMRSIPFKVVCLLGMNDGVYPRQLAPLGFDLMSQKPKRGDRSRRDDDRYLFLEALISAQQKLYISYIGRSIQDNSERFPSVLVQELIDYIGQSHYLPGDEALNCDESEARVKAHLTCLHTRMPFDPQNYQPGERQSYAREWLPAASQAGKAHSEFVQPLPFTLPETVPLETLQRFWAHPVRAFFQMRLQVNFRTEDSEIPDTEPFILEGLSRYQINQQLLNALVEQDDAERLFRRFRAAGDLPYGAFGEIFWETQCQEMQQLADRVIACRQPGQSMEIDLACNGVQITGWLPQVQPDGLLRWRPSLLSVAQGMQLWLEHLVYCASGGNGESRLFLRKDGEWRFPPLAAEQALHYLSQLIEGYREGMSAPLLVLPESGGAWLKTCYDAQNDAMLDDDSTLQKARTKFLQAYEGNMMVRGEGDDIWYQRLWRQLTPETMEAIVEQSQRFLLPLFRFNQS
Chain of Exodeoxyribonuclease V (P08394 whole entry): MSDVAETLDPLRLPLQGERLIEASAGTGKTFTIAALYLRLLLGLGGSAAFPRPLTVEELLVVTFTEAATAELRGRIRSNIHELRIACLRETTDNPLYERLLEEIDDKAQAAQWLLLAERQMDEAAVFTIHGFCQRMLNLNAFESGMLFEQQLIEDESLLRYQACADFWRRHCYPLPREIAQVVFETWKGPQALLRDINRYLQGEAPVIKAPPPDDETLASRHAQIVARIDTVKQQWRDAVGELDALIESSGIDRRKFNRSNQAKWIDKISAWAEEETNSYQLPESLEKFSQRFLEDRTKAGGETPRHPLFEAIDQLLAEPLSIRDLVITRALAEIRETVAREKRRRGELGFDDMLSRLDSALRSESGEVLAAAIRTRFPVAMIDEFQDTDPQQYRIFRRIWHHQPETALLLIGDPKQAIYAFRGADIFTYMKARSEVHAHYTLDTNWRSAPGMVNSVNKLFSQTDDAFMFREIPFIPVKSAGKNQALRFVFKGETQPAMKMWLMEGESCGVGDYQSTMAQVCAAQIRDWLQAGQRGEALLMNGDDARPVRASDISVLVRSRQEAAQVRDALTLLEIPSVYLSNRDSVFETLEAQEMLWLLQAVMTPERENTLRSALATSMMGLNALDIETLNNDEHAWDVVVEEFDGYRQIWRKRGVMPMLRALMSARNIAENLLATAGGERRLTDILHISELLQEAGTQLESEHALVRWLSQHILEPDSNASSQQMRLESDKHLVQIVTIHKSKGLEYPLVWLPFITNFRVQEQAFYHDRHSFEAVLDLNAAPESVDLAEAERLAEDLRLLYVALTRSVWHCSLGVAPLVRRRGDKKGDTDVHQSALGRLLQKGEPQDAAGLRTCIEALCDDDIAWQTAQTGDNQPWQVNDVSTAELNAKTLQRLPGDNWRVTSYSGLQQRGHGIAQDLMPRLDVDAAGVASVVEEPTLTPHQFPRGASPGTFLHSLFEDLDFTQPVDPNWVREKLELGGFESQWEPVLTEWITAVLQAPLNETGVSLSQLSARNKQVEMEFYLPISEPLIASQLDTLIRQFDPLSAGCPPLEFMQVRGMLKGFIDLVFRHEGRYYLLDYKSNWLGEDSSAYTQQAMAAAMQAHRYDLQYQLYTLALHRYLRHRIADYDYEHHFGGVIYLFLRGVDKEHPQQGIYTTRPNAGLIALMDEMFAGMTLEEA

[15] = Counterscreen for AddAB inhibitors: absorbance-based bacterial cell-based high throughput dose response assay for inhibitors of bacterial viability. [Related pubchem assays (depositor defined):AID435030, AID449728, AID449731, AID488942, AID488955, AID488956]; format: functional
[16] = growth suppression of beta-catenin-knockout colon cells, dose response, cell-based, HCT116, human colon tumor (AID 1045); format: functional;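 also: HCT116 colon tumor cells with beta catenin knocked out; cells exposed to compound for 60 hours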
[17] = growth suppression of PTEN-null colon cells, dose response, cell-based, HCT116 PTEN knockout (AID 1047); format: functional;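 also: HCT116 colon tumor cells with PTEN knocked out; cells exposed to compound for 60 hours before readout; potency for loss of cell viability measured by luminescence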
Vero [18] = assay: cells; format: functional, cell-based; settings: Chlorocebus sabaeus
[19] = human group III sPLA2 inhibitors, dose response, biochemical, QFRET, IC50 (AID 743457);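 also: green fluorescence rise as the enzyme cleaves BODIPY PC-A2 in liposomes; potency for inhibition of the enzyme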
Vero [20] = assay: cells; format: functional; settings: Chlorocebus sabaeus

Which results are given for `Cn1c(=O)cc(SCC(=O)N2CCCC2)c2ccc(Cl)cc21`?
EC50 [1]: > 79.4 µM (not active); EC50 [2]: > 79.4 µM (inactive); EC50 [3]: > 79.4 µM (not active)

Which results are given for `O=C(Cn1cnc([N+](=O)[O-])n1)N/N=C/c1ccc(O)cc1O`?
IC50 (Nonstructural protein 1): 10.9 µM (active); IC50 [4]: 107 µM (active); AC50 [5]: 19.3 µM (active); AC50 [6]: 20.8 µM (active); AC50 [7]: 102 µM (active)

For `CN(C)[C@@H]1C(O)=C(C(N)=O)C(=O)[C@@]2(O)C(O)=C3C(=O)c4c(O)ccc(Cl)c4[C@@H](O)[C@H]3C[C@@H]12` [DEMECLOCYCLINE HYDROCHLORIDE], which AC50 (Escherichia coli [8]) is on record?
The AC50 was 866 nM (active).

What about the EC50 (Mu-type opioid receptor) of the same compound?
The EC50 was 92.5 µM (inactive).

What about the EC50 [9] of the same compound?
The EC50 was 13.7 µM (inactive).

And the AC50 (Escherichia coli [10])?
The AC50 was 36 µM (active).

Which IC50 [11] does the source give for `CCOC1(C)OCC(=O)[C@]2(CCC3C4CCC5=CC(=O)C=CC5(C)C4C(=O)CC32C)O1` (stereo partly specified) here?
Its IC50 is > 79.4 µM (inactive).

And the IC50 [12]?
Its IC50 is > 79.4 µM (inactive).

And the IC50 [13]?
Its IC50 is > 79.4 µM (inactive).

Which AC50 [5] does the source give for `Cc1ccc2nc(-c3ccc(-c4cccc(Cl)c4)cc3)c(NCc3ccccc3)n2c1` here?
Its AC50 is 4.96 µM (active).

And the AC50 (INS1)?
Its AC50 is 2.29 µM (active).

What about the AC50 [6] of the same compound?
Its AC50 is 24 µM (active).

What about the IC50 [14] of the same compound?
Its IC50 is 848 nM (active).

Which IC50 (Exodeoxyribonuclease V) does the source give for `CCCCCOc1ccc(CSC(=N)N)cc1[N+](=O)[O-]` here?
The IC50 was > 39.5 µM (inactive).

What about the IC50 [15] of the same compound?
Its IC50 is 83.6 µM (inactive).

And the EC50 [16]?
The EC50 was 27 µM (active).

And the EC50 [17]?
Its EC50 is 25 µM (active).

What about the IC50 (Vero [18]) of the same compound?
The IC50 was 21.2 µM (active).

What about the IC50 [19] of the same compound?
Its IC50 is > 122 µM (inactive).

What about the CC50 (Vero [20]) of the same compound?
Its CC50 is > 25 µM (active).
